Converted amounts (≈) assume the structure as drawn. The source made the active and inactive calls. The calls are words filed in the database; no cut-off is given here.
Experiments:
[1] = test system: Mycolicibacterium smegmatis; assay: Antimycobacterial activity against Mycobacterium smegmatis harboring deltaqcrCAB mutant assessed as reduction in bacterial growth incubated for 24 hrs by resazurin dye based analysis; type: functional
[2] = test system: Mycolicibacterium smegmatis; assay: Antimycobacterial activity against wild type Mycobacterium smegmatis MC2155 assessed as reduction in bacterial growth incubated for 24 hrs by resazurin dye based analysis; type: functional
[3] = test system: Mycolicibacterium smegmatis; assay: Antimycobacterial activity against Mycobacterium smegmatis harboring deltaqcrCAB mutant assessed as reduction in bacterial growth incubated for 2 days by resazurin dye based analysis; type: functional; details: 48 h, time 2 day
[4] = Binding affinity to C-terminal his-tagged Mycobacterium tuberculosis Cytochrome bd oxidase assessed as dissociation constant incubated for 5 to 10 mins by MST assay
[5] = test system: Mycolicibacterium smegmatis; assay: Inhibition of C-terminal his-tagged wild type Mycobacterium smegmatis MC2155 cytochrome bd oxidase assessed as reduction in oxygen consumption at 5 uM measured upto 4 days by Methylene blue dye based assay; details: time <= 4.0 day
[6] = test system: Mycolicibacterium smegmatis; assay: Inhibition of C-terminal his-tagged wild type Mycobacterium smegmatis MC2155 cytochrome bd oxidase assessed as reduction in oxygen consumption at 5 uM measured upto 4 days in presence of Aurachin D by Methylene blue dye based assay; details: time <= 4.0 day
[7] = test system: Mycolicibacterium smegmatis; assay: (§1) Inhibition of C-terminal his-tagged wild type Mycobacterium smegmatis MC2155 cytochrome bd oxidase assessed as reduction in oxygen consumption at 25 uM measured upto 4 days by Methylene blue dye based assay; details: time <= 4.0 day
[8] = test system: Mycolicibacterium smegmatis; assay: Inhibition of C-terminal his-tagged wild type Mycobacterium smegmatis inverted-membrane vesicle cytochrome bd oxidase assessed as reduction in oxygen consumption rate at 10 uM measured upto 4 days by Methylene blue dye based assay; type: cell membranes; details: time <= 4.0 day
[9] = test system: Mycolicibacterium smegmatis; assay: Inhibition of C-terminal his-tagged Mycobacterium smegmatis harboring […] mutant inverted-membrane vesicle cytochrome bd oxidase assessed as reduction in oxygen consumption rate at 10 uM measured upto 4 days by Methylene blue dye based assay; type: cell membranes; details: time <= 4.0 day
[10] = test system: Mycolicibacterium smegmatis; assay: as §1, with “days in presence of 6-chloro-2-ethyl-N-(4-(4-(4-(trifluoromethoxy)phenyl)piperidin-1-yl)benzyl)imidazo[1,2-a]pyridine-3-carboxamide” for “days”; details: time <= 4.0 day
[11] = test system: Mycolicibacterium smegmatis; assay: Inhibition of C-terminal his-tagged Mycobacterium smegmatis harboring deltaqcrCAB mutant inverted-membrane vesicle cytochrome bd oxidase assessed as reduction in oxygen consumption rate at 10 uM measured upto 4 days by Methylene blue dye based assay; type: cell membranes; details: time <= 4.0 day

With `Cc1c(Cc2ccc(N3CCN(c4ccc(OC(F)(F)F)cc4)CC3)cc2)c(=O)c2ccccc2n1O` the MIC [1] was 100 µM (≈ 51 µg/mL) and the MIC [2] was over 400 µM.
In the case of `Cc1ccccc1Cc1c(C)n(O)c2ccccc2c1=O`, the MIC [1] is reported as 25 µM (≈ 6.98 µg/mL) and the MIC [2] is reported as over 400 µM.
In the case of `Cc1c(Cc2ccccc2OC(F)(F)F)c(=O)c2ccccc2n1O`, the MIC [1] is reported as 3.1 µM (≈ 1.08 µg/mL), the MIC [3] is reported as 6.25 µM (≈ 2.18 µg/mL) and the MIC [2] is reported as over 400 µM. The Kd [4] was 165 µM.
With `Cc1c(Cc2ccccc2F)c(=O)c2ccccc2n1O` the MIC [1] was 50 µM (≈ 14.2 µg/mL) and the MIC [2] was over 400 µM.
With `CCc1nc2ccc(Cl)cn2c1C(=O)NCc1ccc(N2CCC(c3ccc(OC(F)(F)F)cc3)CC2)cc1` the inhibition [5] was “inactive” and the inhibition [6] was “Active”.
For `CCc1ccccc1Cc1c(C)n(O)c2ccccc2c1=O`, the MIC [1] was 50 µM (≈ 14.7 µg/mL) and the MIC [2] was over 400 µM.
Compound `CC(C)(C)c1cc(C(C)(C)C)c(NC(=O)c2c[nH]c3ccccc3c2=O)cc1O` [IVACAFTOR] has an MIC [1] of 51 µM (≈ 20 µg/mL) and a Kd [4] of 40 µM.
`Cc1c(Cc2ccc(I)cc2)c(=O)c2ccccc2n1O` showed an MIC [1] of 12.5 µM (≈ 4.89 µg/mL) and an MIC [2] of over 400 µM.
With `Cc1c(Cc2ccccc2Cl)c(=O)c2ccccc2n1O` the MIC [1] was 50 µM (≈ 15 µg/mL) and the MIC [2] was over 400 µM.
Compound `Cc1c(-c2cnn(Cc3ccc(OC(F)(F)F)cc3)c2)c(=O)c2ccccc2n1O` has an MIC [1] of over 400 µM and an MIC [2] of over 400 µM.
For `Cc1c(Cc2ccc(Br)cc2)c(=O)c2ccccc2n1O`, the MIC [1] was 6.25 µM (≈ 2.15 µg/mL) and the MIC [2] was over 400 µM.
In the case of `Cc1c(Cc2ccc(Cl)cc2)c(=O)c2ccccc2n1O`, the MIC [1] is reported as 6.25 µM (≈ 1.87 µg/mL) and the MIC [2] is reported as over 400 µM.
With `Cc1c(Cc2ccccc2Br)c(=O)c2ccccc2n1O` the MIC [1] was 50 µM (≈ 17.2 µg/mL) and the MIC [2] was over 400 µM.
With `Cc1[nH]c2ccccc2c(=O)c1-c1cnn(Cc2ccc(OC(F)(F)F)cc2)c1` the MIC [1] was over 400 µM and the MIC [2] was over 400 µM.
In the case of `Cc1c(Cc2ccccc2)c(=O)c2ccccc2n1O`, the MIC [1] is reported as 50 µM (≈ 13.3 µg/mL) and the MIC [2] is reported as over 400 µM.
With `Cc1c(Cc2ccccc2C(F)(F)F)c(=O)c2ccccc2n1O` the MIC [1] was 50 µM (≈ 16.7 µg/mL) and the MIC [2] was over 400 µM.
In the case of `COc1ccccc1Cc1c(C)n(O)c2ccccc2c1=O`, the MIC [1] is reported as 25 µM (≈ 7.38 µg/mL) and the MIC [2] is reported as over 400 µM.
Work on `CN(C(=O)c1c(O)c2ccccc2n(C)c1=O)c1ccccc1` [ROQUINIMEX] yielded an MIC [1] of 260 µM (≈ 80.2 µg/mL) and a Kd [4] of 13 µM.
`Cc1[nH]c2ccccc2c(=O)c1Cc1ccc(OC(F)(F)F)cc1` gave an MIC [1] of 50 µM (≈ 16.7 µg/mL) and an MIC [2] of over 400 µM.
For `CC(C)=CCC/C(C)=C/CC/C(C)=C/Cc1c(C)[nH]c2ccccc2c1=O` [AURACHIN D], the MIC [1] was 6.25 µM (≈ 2.27 µg/mL) and the inhibition [7] was “inactive”.
`Cc1c(Cc2ccc(N3CCN(C)CC3)cc2)c(=O)c2ccccc2n1O` gave an MIC [1] of over 400 µM and an MIC [2] of over 400 µM.
For `Cc1c(Cc2ccc(OC(F)(F)F)cc2)c(=O)c2ccccc2n1O`, the MIC [1] was 6.25 µM (≈ 2.18 µg/mL), the inhibition [8] was 74% and the inhibition [7] was “inactive”. For the same compound, the MIC [3] was 6.25 µM (≈ 2.18 µg/mL), the MIC [2] was over 400 µM and the inhibition [9] was “inactive”. For the same compound, the Kd [4] was 4.17 µM, the inhibition [10] was “Active” and the inhibition [11] was 86%.

From ChEMBL document CHEMBL5385849, “Discovery of 1-hydroxy-2-methylquinolin-4(1H)-one derivatives as new cytochrome bd oxidase inhibitors for tuberculosis therapy” (Eur J Med Chem, 2023)
